Laboratory results published in patent US9801831B2, “Device for controlled release of a bioactive agent” (Nanyang Technological University, priority 2010, dated 2017).
Converted amounts (≈) assume the structure as drawn.

Experiment: Solubility limit of paclitaxel in release buffer
Assay type: physicochemical
Details: PBS/2% Tween-80 release buffer, pH 7.4, aqueous with cosolvent or surfactant or cyclodextrin
Experimental: The in-vitro release of paclitaxel was conducted in 2 mL of PBS/% Tween 80 release buffer (pH 7.4) at 37° C. using 6 mm punch-outs (1 punch-out/well) in triplicate. At predetermined time-points 2 mL of buffer was removed and another 2 mL replaced with PBS/Tween 80 release buffer, maintaining sink conditions throughout the release. Withdrawn aliquots (or standards/dissolutions samples) were filtered through a 0.2 μm PTFE syringe filter directly into HPLC vials and immediately capped. Paclitaxel was quantified with an Agilent Series 1100 HPLC (Santa Clara, Calif., USA) equipped with UV/Vis detector, autosampler, and column heater set to 35° C. A ZORBAX Eclipse XDB-C18 (5 μm) column of acetonitrile/water 60/40 (v/v) served as the mobile buffer, eluting the paclitaxel peak at ˜5.4 minutes with a flow rate 1.0 mL/min and the UV/Vis detector recording at 227 nm. A total dissolution study of the 6 mm discs in triplicate was conducted by dissolving the films in acetone and diluting in release buffer to determine the surface concentration of paclitaxel (μg/mm^2).

solubility: 20 µg/mL (≈ 23.4 µM)
SMILES: CC(=O)O[C@H]1C(=O)[C@@]2(C)[C@H]([C@H](OC(=O)c3ccccc3)[C@]3(O)C[C@H](OC(=O)[C@H](O)[C@@H](NC(=O)c4ccccc4)c4ccccc4)C(C)=C1C3(C)C)[C@]1(OC(C)=O)CO[C@@H]1C[C@@H]2O [paclitaxel]
